The values below come from US9375443B2 (Signal Pharmaceuticals, LLC, priority 2012, dated 2016).

The term IC50 denotes the point on the concentration scale where inhibition reaches its midpoint.

Where two headings read alike, the source gives them in different places.

Test [1] concerns H460. Briefly: Proliferation Assays (NSCLC cell line sensitivity). Format: cell-based.
For test [2], the system named is NCI-H23. Briefly: Proliferation Assays (NSCLC cell line sensitivity). The format is cell-based.
Test [3] concerns H520. Briefly: Proliferation Assays (NSCLC cell line sensitivity). The format is cell-based. The following applies: KRAS WT, EGFR WT.
In test [4] the test system is H157. Nature of the test: Proliferation Assays (NSCLC cell line sensitivity). Format: cell-based.
The test system of test [5] is A549. Nature of the test: Proliferation Assays (NSCLC cell line sensitivity). The format is cell-based.
Test [6] has as its system H3255. Briefly: Proliferation Assays (NSCLC cell line sensitivity). The format is cell-based. The following applies: EGFR L858R.
In test [7] the test system is H441. Briefly: Proliferation Assays (NSCLC cell line sensitivity). Format: cell-based. The following applies: BAC, KRAS MUT, EGFR WT.
The subject of test [8] is H1650. Briefly: Proliferation Assays (NSCLC cell line sensitivity). The following applies: KRAS WT, EGFR E746 A750del (exon19). Format: cell-based.
Test [9] relates to panel of NSCLC cell lines. Briefly: Proliferation Assays, panel of NSCLC cell lines. Format: cell-based. Particulars: various degrees of sensitivity.
For test [10], the system named is Calu-3. Briefly: Proliferation Assays (NSCLC cell line sensitivity). The format is cell-based. The following applies: ACA, KRAS WT, EGFR wt (HER2+).
For test [11], the system named is HCC95. Nature of the test: Proliferation Assays (NSCLC cell line sensitivity). The following applies: SQC, KRAS WT, EGFR WT. The format is cell-based.
Test [12] relates to HCC15. Briefly: Proliferation Assays (NSCLC cell line sensitivity). The format is cell-based. Particulars: SQC, KRAS WT, EGFR WT.
The subject of test [13] is H2009. Briefly: Proliferation Assays (NSCLC cell line sensitivity). The format is cell-based. Particulars: KRAS MUT, EGFR WT.
Test [14] deals with H2122. Nature of the test: Proliferation Assays (NSCLC cell line sensitivity). The format is cell-based. The following applies: KRAS MUT, EGFR WT.
For test [15], the system named is H1299. Nature of the test: Proliferation Assays (NSCLC cell line sensitivity). The format is cell-based. Particulars: KRAS WT, EGFR WT.
The subject of test [16] is H226. Briefly: Proliferation Assays (NSCLC cell line sensitivity). Format: cell-based. The following applies: KRAS WT, EGFR WT.
Test [17] has as its system A549 xenografts. Briefly: A549 xenograft in nude mice. The format is in vivo, athymic nude mice. Particulars: erlotinib 40 mg/kg 3× per week oral gavage, Compound 1 5 mg/kg/daily oral gavage, Day 26 to day 53. From the text:
(§1) A549 adenocarcinoma or H1975 cells in single cell suspension were implanted into the posterior flanks of athymic nude mice. […] For the A549 xenograft, the treatments were started on Day 26 after implantation and were stopped on day 53, while for the H1975 xenograft, the treatments were started on day 17 after implantation and were stopped on day 30.

The subject of test [18] is H1703. Nature of the test: Proliferation Assays (NSCLC cell line sensitivity). Format: cell-based. Particulars: KRAS WT, EGFR WT.
For test [19], the system named is H1975 xenografts. Nature of the test: H1975 xenograft in nude mice. The following applies: erlotinib 40 mg/kg 3× per week oral gavage, Compound 1 5 mg/kg/daily oral gavage, day 17 to day 30. The format is in vivo, athymic nude mice.
Text: as §1

For test [20], the system named is H2126. Nature of the test: Proliferation Assays (NSCLC cell line sensitivity). Format: cell-based.
In test [21] the test system is H1975. Briefly: Proliferation Assays (NSCLC cell line sensitivity). Format: cell-based. The following applies: ACA, KRAS WT, EGFR L858R, T790M.

Consider `C#Cc1cccc(Nc2ncnc3cc(OCCOC)c(OCCOC)cc23)c1` [Erlotinib, erlotinib], for which the IC50 in test [1] (Homo sapiens, NCI-H460, read-out: IC50 (value in parentheses beside > 10 μM)) is 18 µM; in test [1] (Homo sapiens, NCI-H460, H460, LCC, KRAS MUT G61H, EGFR WT, read-out: IC50), more than 10 µM; in test [2] (Homo sapiens, NCI-H23, read-out: IC50 (value in parentheses beside > 10 μM)) it was 22.8 µM; in test [2] (Homo sapiens, NCI-H23, ACA, KRAS MUT 12 mutation G12C, read-out: IC50) it was more than 10 µM; in test [3] (Homo sapiens, NCI-H520, SQC) it was more than 10000 nM; in [4] (Homo sapiens, NCI-H157), more than 10000 nM. The IC50 is 25.2 µM in test [5] (Homo sapiens, A549, read-out: IC50 (value in parentheses beside > 10 μM)); more than 10 µM in test [5] (Homo sapiens, A549, ACA, KRAS MUT G125, EGFR WT, read-out: IC50); 0.205 µM in [6] (Homo sapiens, NCI-H3255, ACA); more than 10000 nM in test [7] (Homo sapiens, NCI-H441, ACA); 2.84 µM in test [8] (Homo sapiens, NCI-H1650, ACA); 7.09 µM in test [10] (Homo sapiens). Further, the half-maximal inhibitory concentration (IC50) in [11] (Homo sapiens) was 6.45 µM; in test [12] it was more than 10 µM; in test [13] (Homo sapiens, NCI-H2009, ACA), 15.3 µM; in test [14] (Homo sapiens, NCI-H2122, ACA), more than 10000 nM; in test [15] (Homo sapiens, NCI-H1299, Large Cell Neuroendocrin), more than 10 µM; in test [16] (Homo sapiens, NCI-H226, SQC), more than 10000 nM. For the same compound, the 50% inhibitory concentration (IC50) is more than 10000 nM in [18] (Homo sapiens, NCI-H1703, SCC); 19.8 µM in test [20] (Homo sapiens, NCI-H2126, read-out: IC50 (value in parentheses beside > 10 μM)); more than 10 µM in test [20] (Homo sapiens, NCI-H2126, H2126, ACA, KRAS WT, EGFR WT, read-out: IC50). Also, in [9], the anti-proliferative activity result is listed as “demonstrated anti-proliferative activity”. The “tumor growth during treatment” value in test [17] is recorded as “resistant”; in test [19], “moderately sensitive”.
In the case of `CO[C@H]1CC[C@H](N2C(=O)CNc3ncc(-c4ccc(C(C)(C)O)nc4)nc32)CC1` [Compound 1, 7-(6-(2-hydroxypropan-2-yl)pyridin-3-yl)-1-((1r,4r)-4-methoxycyclohexyl)-3,4-dihydropyrazino-[2,3-b]pyrazin-2(1H)-one], the IC50 in test [1] (H460, LCC, KRAS MUT G61H, EGFR WT, read-out: IC50) worked out at 0.153 µM; in [2] (NCI-H23, ACA, KRAS MUT 12 mutation G12C, read-out: IC50) it was 3 µM; in test [3] (SQC) it was 374 nM; in [4] (H157, SQC, KRAS MUT, EGFR WT), 2610 nM; in test [5] (A549, ACA, KRAS MUT G125, EGFR WT, read-out: IC50) it was 0.58 µM; in [6] (ACA), 11.9 µM. Moreover, the IC50 was 392 nM in test [7] (ACA); 5.2 µM in test [8] (ACA); 0.184 µM in test [10]; 0.724 µM in test [11]; 6.37 µM in [12]; 5.05 µM in [13] (ACA). Besides, the IC50 in [14] (ACA) is 1590 nM; in test [15] (Large Cell Neuroendocrin), 3.09 µM; in test [16] (SQC), 1980 nM; in [21], 250 nM; in [18] (SCC) it was 1640 nM; in test [20] (H2126, ACA, KRAS WT, EGFR WT, read-out: IC50) it was 0.214 µM. Also, in test [9], the anti-proliferative activity result is recorded as “demonstrated anti-proliferative activity”.
